From patent US9018383B2, “Acylamino-substituted cyclic carboxylic acid derivatives and their use as pharmaceuticals” (Sanofi, priority 2009, dated 2015)

Molecular target: human Edg-2 receptor (Homo sapiens, UniProt Q92633)
Assay: Determination of Edg-2 receptor inhibition by FLIPR measurements (LPA-mediated calcium liberation)
Type: cell-based
Conditions: CHO cells overexpressing human Edg-2 receptor, LPA 100 nM, fluo-4 calcium fluorescence; read-out: Inhibitory concentrations IC50 for inhibition of the Edg-2 receptor
Description: A) Determination of Edg-2 Receptor Inhibition by Fluorescence Imaging Plate Reader (FLIPR) Measurements
The inhibition of the Edg-2 receptor (LPA1 receptor) by the compounds of the invention was quantified by the inhibitory effect on the LPA-mediated calcium liberation in a cell-based calcium fluorescence assay by use of Chinese hamster ovarian (CHO) cells in which the human Edg-2 receptor was stably overexpressed (Flp-In system, Invitrogen). […] Changes in intracellular calcium were determined by fluorescence measurement with the calcium-sensitive dye fluo-4 (Invitrogen) in a fluorescence imaging plate reader (FLIPR, […]).
CHO cells stably overexpressing the human Edg-2 receptor were seeded (40.000 per well) in black clear-bottomed poly-D-lysine-coated 96 well plates (Becton Dickinson, Biocoat cellware) approximately 18-24 h prior to the experiments. Cells were grown in an incubator at 37° C., 5% carbon dioxide and 95% humidity in cell culture media based on F-12 glutamax media (Gibco, #31765) supplemented with 1% (vol/vol) penicilline/streptomycine (PAN, #P06-07100), 10% (vol/vol) fetal calf serum (FCS, PAA, #A15-151) and hygromycin B (Invitrogen, #10687-010) 300 mg/l (final concentrations).
Prior to the FLIPR experiment, cells were loaded with fluo-4 acetoxymethyl ester (fluo-4 AM, Invitrogen, #F14202) for 60 min in an incubator at 37° C., 5% carbon dioxide and 95% humidity in dye-loading buffer consisting of Hanks' Balanced Salt Solution (HBSS, Invitrogen, #14065049) supplemented with fluo-4 AM at 2 μM (all data given for final concentration), Pluronic® F-127 0.05% (vol/vol) (Invitrogen, #P-3000 MP), HEPES 20 mM (Gibco, #15630), probenecid 2.5 mM (Sigma, #P-8761) and bovine serum albumin 0.05% (BSA, Sigma, #A-6003), adjusted to pH 7.5 with sodium hydroxide. During cell loading, fluo-4 AM is cleaved by intracellular esterase resulting in trapping of the dye fluo-4 within the cells. Loading was terminated by washing of the cells in a cell washer (Tecan Power washer) three times with the buffer specified afore but without fluo-4 AM and BSA. This latter buffer was also used as the buffer in the subsequent cell fluorescence measurements.
The dye-loaded and washed cells were pre-incubated for approximately 5 min with various concentrations of the test compound added as a solution in DMSO (0.3% vol/vol maximum final concentration of DMSO), or with DMSO in the respective concentration only (positive control). Subsequent addition of LPA (18:1, 1-oleoyl-sn-glycerol 3-phosphate; 100 nM final concentration) leads to liberation of intracellular calcium from internal stores resulting in a large transient increase of the fluo-4 fluorescence signal which was monitored over approximately 3 min. The percent inhibition caused by the test compound was determined from the maximum fluorescence response after LPA addition to cells pre-incubated with the compound as compared to the maximum fluorescence response after LPA addition to cells pre-incubated with DMSO only. All fluorescence values were corrected for the baseline fluorescence values obtained with cells which were pre-incubated with DMSO only and were not treated with LPA (baseline control). All measurements were performed in triplicate. From the percent inhibitions the inhibitory concentration IC50 was determined.

Chain of human Edg-2 receptor (Q92633 whole entry): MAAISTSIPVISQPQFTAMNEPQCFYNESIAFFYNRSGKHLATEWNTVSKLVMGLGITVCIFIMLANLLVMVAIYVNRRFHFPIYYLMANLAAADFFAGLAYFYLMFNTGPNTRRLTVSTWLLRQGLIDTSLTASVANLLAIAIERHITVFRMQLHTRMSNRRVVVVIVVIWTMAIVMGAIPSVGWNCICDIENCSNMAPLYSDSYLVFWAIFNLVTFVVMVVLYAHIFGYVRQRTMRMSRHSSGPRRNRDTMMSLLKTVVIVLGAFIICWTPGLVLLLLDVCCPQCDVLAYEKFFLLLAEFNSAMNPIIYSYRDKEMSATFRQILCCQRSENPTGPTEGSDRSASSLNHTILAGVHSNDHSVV

SMILES | IC50 [nM]
COc1ncc(C(=O)N[C@]2(C(=O)O)CC[C@@H](C)CC2)cc1OCCc1ccccc1 [Example 83, trans-1-{[6-Methoxy-5-(2-phenyl-ethoxy)-pyridine-3-carbonyl]-amino}-4-methyl-cyclohexanecarboxylic acid] | < 100
COc1ncc(C(=O)N[C@]2(C(=O)O)CC[C@@H](C)CC2)cc1OCCc1cc(C)ccc1C [Example 84, trans-1-({5-[2-(2,5-Dimethyl-phenyl)-ethoxy]-6-methoxy-pyridine-3-carbonyl}-amino)-4-methyl-cyclohexanecarboxylic acid] | 1000 to 30000
COc1ncc(C(=O)N[C@]2(C(=O)O)CC[C@@H](C)CC2)cc1OCCc1cccc(Cl)c1 [Example 85, trans-1-({5-[2-(3-chloro-phenyl)-ethoxy]-6-methoxy-pyridine-3-carbonyl}-amino)-4-methyl-cyclohexanecarboxylic acid] | < 100
COc1ncc(C(=O)N[C@]2(C(=O)O)CC[C@H](C)CC2)cc1OCCc1cc(C)ccc1C [Example 86, cis-1-({5-[2-(2,5-Dimethyl-phenyl)-ethoxy]-6-methoxy-pyridine-3-carbonyl}-amino)-4-methyl-cyclohexanecarboxylic acid] | 1000 to 30000
COc1ncc(C(=O)NC2(C(=O)O)CCCCCC2)cc1OCCc1cc(C)ccc1C [Example 87, 1-({5-[2-(2,5-Dimethyl-phenyl)-ethoxy]-6-methoxy-pyridine-3-carbonyl}-amino)-cycloheptanecarboxylic acid] | 1000 to 30000
COc1ncc(C(=O)NC2(C(=O)O)CCCCCC2)cc1OCCc1ccccc1 [Example 88, 1-{[5-(2-Phenyl-ethoxy)-6-methoxy-pyridine-3-carbonyl]-amino}-cycloheptanecarboxylic acid] | < 100
COc1ncc(C(=O)N[C@]2(C(=O)O)CC[C@@H](C(C)(C)C)CC2)cc1OCCc1cccc(C)c1 [Example 89, trans-4-tert-Butyl-1-{[6-methoxy-5-(2-m-tolyl-ethoxy)-pyridine-3-carbonyl]-amino}-cyclohexanecarboxylic acid] | 1000 to 30000
COc1ncc(C(=O)N[C@]2(C(=O)O)CC[C@@H](C)CC2)cc1OCCc1cccc(CCO)c1 [Example 90, trans-1-[(5-{2-[3-(2-Hydroxy-ethyl)-phenyl]-ethoxy}-6-methoxy-pyridine-3-carbonyl)-amino]-4-methyl-cyclohexanecarboxylic acid] | < 100
COc1ncc(C(=O)N[C@]2(C(=O)O)CC[C@H](C)CC2)cc1OCCc1cccc(CCO)c1 [Example 91, cis-1-[(5-{2-[3-(2-Hydroxy-ethyl)-phenyl]-ethoxy}-6-methoxy-pyridine-3-carbonyl)-amino]-4-methyl-cyclohexanecarboxylic acid] | < 100
COc1ccc(C(=O)NC2(C(=O)O)CCCCCC2)cc1-c1cccc(NS(=O)(=O)N(C)C)c1 [Example 103] | 100 to 1000
COc1ccc(C(=O)NC2(C(=O)O)CCCCCC2)cc1-c1cccc(C(C)C)c1 [Example 105] | 100 to 1000
COc1ccc(C(=O)NC2(C(=O)O)CCCCCC2)cc1OCCc1cccc(CCO)c1 [Example 107, 1-(3-{2-[3-(2-Hydroxy-ethyl)-phenyl]-ethoxy}-4-methoxy-benzoylamino)-cycloheptanecarboxylic acid] | < 100
COc1ccc(C(=O)NC2(C(=O)O)CCCCCCC2)cc1OCCc1cccc(CCO)c1 [Example 108, 1-(3-{2-[3-(2-Hydroxy-ethyl)-phenyl]-ethoxy}-4-methoxy-benzoylamino)-cyclooctanecarboxylic acid] | < 100
COc1ccc(C(=O)N[C@]2(C(=O)O)CC[C@H](C)CC2)cc1OCCc1cccc(CCO)c1 [Example 109, cis-1-(3-{2-[3-(2-Hydroxy-ethyl)-phenyl]-ethoxy}-4-methoxy-benzoylamino)-4-methyl-cyclohexanecarboxylic acid] | < 100
COc1ccc(C(=O)N[C@]2(C(=O)O)CC[C@@H](C)CC2)cc1OCCc1cccc(CCO)c1 [Example 110, trans-1-(3-{2-[3-(2-Hydroxy-ethyl)-phenyl]-ethoxy}-4-methoxy-benzoylamino)-4-methyl-cyclohexanecarboxylic acid] | < 100
CC[C@H]1CC[C@](NC(=O)c2ccc(OC)c(OCCc3cccc(CCO)c3)c2)(C(=O)O)CC1 [Example 111, cis-4-Ethyl-1-(3-{2-[3-(2-hydroxy-ethyl)-phenyl]-ethoxy}-4-methoxy-benzoylamino)-cyclohexanecarboxylic acid] | < 100
CC[C@H]1CC[C@@](NC(=O)c2ccc(OC)c(OCCc3cccc(CCO)c3)c2)(C(=O)O)CC1 [Example 112, trans-4-Ethyl-1-(3-{2-[3-(2-hydroxy-ethyl)-phenyl]-ethoxy}-4-methoxy-benzoylamino)-cyclohexanecarboxylic acid] | < 100
COCCOc1ccc(C(=O)N[C@]2(C(=O)O)CC[C@H](C)CC2)cc1OCCc1cccc(Cl)c1 [Example 113, cis-1-[3-[2-(3-Chloro-phenyl)-ethoxy]-4-(2-methoxy-ethoxy)-benzoylamio]-4-methyl-cyclohexanecarboxylic acid] | 100 to 1000
COCCOc1ccc(C(=O)N[C@]2(C(=O)O)CC[C@@H](C)CC2)cc1OCCc1cccc(Cl)c1 [Example 114, trans-1-[3-[2-(3-Chloro-phenyl)-ethoxy]-4-(2-methoxy-ethoxy)-benzoylamino]-4-methyl-cyclohexanecarboxylic acid] | 100 to 1000
COCCOc1ccc(C(=O)NC2(C(=O)O)CCCCCC2)cc1OCCc1cccc(Cl)c1 [Example 115, 1-[3-[2-(3-Chloro-phenyl)-ethoxy]-4-(2-methoxy-ethoxy)-benzoylamino]-cycloheptanecarboxylic acid] | 1000 to 30000
COCCOc1ccc(C(=O)NC2(C(=O)O)CCCCCC2)cc1OCCc1cccc(C)c1 [Example 116, 1-[4-(2-Methoxy-ethoxy)-3-(2-m-tolyl-ethoxy)-benzoylamino]-cycloheptanecarboxylic acid] | 1000 to 30000
COCCOc1ccc(C(=O)N[C@]2(C(=O)O)CC[C@@H](C)CC2)cc1OCCc1cccc(C)c1 [Example 117, trans-1-[4-(2-Methoxy-ethoxy)-3-(2-m-tolyl-ethoxy)-benzoylamino]-4-methyl-cyclohexane-carboxylic acid] | 1000 to 30000
COCCOc1ccc(C(=O)N[C@]2(C(=O)O)CC[C@H](C)CC2)cc1OCCc1cccc(C)c1 [Example 118, cis-1-[4-(2-Methoxy-ethoxy)-3-(2-m-tolyl-ethoxy)-benzoylamino]-4-methyl-cyclohexane-carboxylic acid] | 1000 to 30000

More lines, now with the values ahead:

IC50 [nM] | SMILES
1000 to 30000 | COc1ncc(C(=O)NC2(C(=O)O)CCCCCC2)cc1-c1cccc(C#N)c1 [Example 92, 1-{[5-(3-Cyano-phenyl)-6-methoxy-pyridine-3-carbonyl]-amino}-cycloheptanecarboxylic acid]
1000 to 30000 | COc1ncc(C(=O)NC2(C(=O)O)CCCCCC2)cc1-c1cccc(NS(=O)(=O)N(C)C)c1 [Example 93]
100 to 1000 | COc1ncc(C(=O)NC2(C(=O)O)CCCCCC2)cc1-c1cccc(Cl)c1 [Example 94, 1-{[5-(3-chloro-phenyl)-6-methoxy-pyridyl-3-carbonyl]-amino}-cycloheptanecarboxylic acid]
100 to 1000 | COc1ncc(C(=O)NC2(C(=O)O)CCCCCC2)cc1-c1cccc(C(C)C)c1 [Example 95]
< 100 | COc1ncc(C(=O)NC2(C(=O)O)CCCCCC2)cc1-c1cccc(OC(F)(F)F)c1 [Example 96]
< 100 | COc1ncc(C(=O)NC2(C(=O)O)CCCCCC2)cc1-c1cccc(Cl)c1Cl [Example 97]
< 100 | COc1ncc(C(=O)NC2(C(=O)O)CCCCCC2)cc1-c1cc(F)c(F)c(F)c1 [Example 98]
< 100 | COc1ncc(C(=O)NC2(C(=O)O)CCCCCC2)cc1-c1cc(Cl)cc(C(F)(F)F)c1 [Example 99]
< 100 | COc1ncc(C(=O)NC2(C(=O)O)CCCCCC2)cc1-c1cccc(C(F)(F)F)c1 [Example 100]
1000 to 30000 | COc1ccc(C(=O)NC2(C(=O)O)CCCCCC2)cc1-c1cccc(C#N)c1 [Example 106]
